Data on twelve compounds can be found in patent publication US7435815B2, “Sulfonylamino-acetic acid derivatives” (Actelion Pharmaceuticals Ltd., priority 2002, dated 2008).

Bounds are passed on as bounds.

The target in one experiment is T1, human orexin-1 receptor (Homo sapiens, UniProt O43613).
T1 construct: expressed in transfected cells; host or cells: CHO cells (G418 selection)
T1 sequence (O43613 1-425): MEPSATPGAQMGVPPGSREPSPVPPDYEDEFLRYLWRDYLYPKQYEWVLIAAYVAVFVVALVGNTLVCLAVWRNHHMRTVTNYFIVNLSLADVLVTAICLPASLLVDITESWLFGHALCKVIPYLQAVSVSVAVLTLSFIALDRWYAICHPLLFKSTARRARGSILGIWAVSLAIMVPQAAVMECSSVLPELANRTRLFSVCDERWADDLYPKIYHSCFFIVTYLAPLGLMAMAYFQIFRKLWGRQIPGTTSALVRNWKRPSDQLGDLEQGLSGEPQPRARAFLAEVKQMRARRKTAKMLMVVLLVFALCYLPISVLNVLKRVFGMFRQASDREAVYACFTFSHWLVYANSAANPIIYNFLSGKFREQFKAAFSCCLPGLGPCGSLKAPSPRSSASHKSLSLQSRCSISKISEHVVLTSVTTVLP
Put plainly: Intracellular calcium measurements (FLIPR), orexin receptor antagonistic activity, OX1. In kind it is cell-based. The settings on record: CHO cells expressing the human orexin-1 receptor, agonist 10 nM human orexin-A. On the procedure:
(§1) The Orexin receptor antagonistic activity of the compounds of formula (I) was determined in accordance with the following experimental method.
(§2) Intracellular Calcium Measurements
(§3) Chinese hamster ovary (CHO) cells expressing the human orexin-1 receptor and the human orexin-2 receptor, respectively, were grown in culture medium (Ham F-12 with L-Glutamine) containing 300 μg/ml G418, 100 U/ml penicillin, 100 μg/ml streptomycin and 10% inactivated foetal calf serum (FCS).
(§4) The cells were seeded at 80,000 cells/well into 96-well black clear bottom sterile plates (Costar) which had been precoated with 1% gelatine in Hanks' Balanced Salt Solution (HBSS). All reagents were from Gibco BRL.
(§5) The seeded plates were incubated overnight at 37° C. in 5% CO2.
(§6) Human orexin-A as an agonist was prepared as 1 mM stock solution in methanol:water (1:1), diluted in HBSS containing 0.1% bovine serum albumin (BSA) and 2 mM HEPES for use in the assay at a final concentration of 10 nM.
(§7) Antagonists were prepared as 10 mM stock solution in DMSO, then diluted in 96-well plates, first in DMSO, then in HBSS containing 0.1% bovine serum albumin (BSA) and 2 mM HEPES.
(§8) On the day of the assay, 100 μl of loading medium (HBSS containing 1% FCS, 2 mM HEPES, 5 mM probenecid (Sigma) and 3 μM of the fluorescent calcium indicator fluo-3 AM (1 mM stock solution in DMSO with 10% pluronic acid) (Molecular Probes) was added to each well.
(§9) The 96-well plates were incubated for 60 min at 37° C. in 5% CO2. The loading solution was then aspirated and cells were washed 3 times with 200 μl HBSS containing 2.5 mM probenecid, 0.1% BSA, 2 mM HEPES. 100 μl of that same buffer was left in each well. Within the Fluorescent Imaging Plate Reader (FLIPR, Molecular Devices), antagonists were added to the plate in a volume of 50 μl, incubated for 20 min and finally 100 μl of agonist was added. Fluorescence was measured for each well at 1 second intervals, and the height of each fluorescence peak was compared to the height of the fluorescence peak induced by 10 nM orexin-A with buffer in place of antagonist.

In a further experiment the target is T2, human orexin-2 receptor (Homo sapiens, UniProt O43614).
T2 construct: expressed in transfected cells; host or cells: CHO cells (G418 selection)
T2 sequence (O43614 1-444): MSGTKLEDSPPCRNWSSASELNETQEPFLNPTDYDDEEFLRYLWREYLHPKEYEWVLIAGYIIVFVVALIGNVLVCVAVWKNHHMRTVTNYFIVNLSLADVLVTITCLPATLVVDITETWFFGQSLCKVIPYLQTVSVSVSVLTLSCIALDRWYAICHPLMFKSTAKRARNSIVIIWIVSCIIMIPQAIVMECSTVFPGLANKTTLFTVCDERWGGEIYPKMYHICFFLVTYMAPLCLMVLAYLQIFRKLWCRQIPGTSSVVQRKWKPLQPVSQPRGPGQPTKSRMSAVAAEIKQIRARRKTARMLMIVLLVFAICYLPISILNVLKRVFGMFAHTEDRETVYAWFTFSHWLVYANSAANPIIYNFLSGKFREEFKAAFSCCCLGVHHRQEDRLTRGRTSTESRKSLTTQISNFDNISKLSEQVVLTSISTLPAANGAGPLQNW
Nature of the experiment: Intracellular calcium measurements (FLIPR), orexin receptor antagonistic activity, OX2. In kind it is cell-based. The following applies: CHO cells expressing the human orexin-2 receptor, agonist 10 nM human orexin-A. As for the experimental part:
as §1, §2, §3, §4, §5, §6, §7, §8, §9

On to `CCN(Cc1ccccc1)C(=O)CN(c1ccc(OC)nc1)S(=O)(=O)c1ccccc1C` [Example 46, N-Benzyl-N-ethyl-2-[(6-methoxy-pyridin-3-yl)-(toluene-2-sulfonyl)-amino]-acetamide], for which the IC50 (commonly the concentration that gives 50% inhibition) is 898 nM at human orexin-1 receptor and 5 nM at human orexin-2 receptor.
For the compound `CCN(Cc1ccccc1)C(=O)CN(c1ccccc1OC)S(=O)(=O)c1ccccc1C` [Example 47, N-Benzyl-N-ethyl-2-[(2-methoxy-phenyl)-(toluene-2-sulfonyl)-amino]-acetamide], the figures for the concentration for half-maximal inhibition (IC50) on human orexin-1 receptor and at human orexin-2 receptor were 354 nM and 4 nM, respectively.
As to `CCN(CCC#N)C(=O)CN(c1ccc(C)cc1)S(=O)(=O)c1ccc(C(C)(C)C)cc1` [Example 63, 2-[(4-tert-Butyl-benzenesulfonyl)-p-tolyl-amino]-N-(2-cyano-ethyl)-N-ethyl-acetamide], the IC50 at human orexin-1 receptor was above 10000 nM; at human orexin-2 receptor, 3 nM.
Regarding `CCN(Cc1ccccn1)C(=O)CN(c1ccc(C)cc1)S(=O)(=O)c1ccc(C(C)(C)C)cc1` [Example 66, 2-[(4-tert-Butyl-benzenesulfonyl)-p-tolyl-amino]-N-ethyl-N-pyridin-2-ylmethyl-acetamide], the IC50 came out at 1030 nM at human orexin-1 receptor and 4 nM on human orexin-2 receptor.
Turning to `CCN(Cc1cccc(C)n1)C(=O)CN(c1ccc(C)cc1)S(=O)(=O)c1ccc(C(C)(C)C)cc1` [Example 71, 2-[(4-tert-Butyl-benzenesulfonyl)-p-tolyl-amino]-N-ethyl-N-(6-methyl-pyridin-2-ylmethyl)-acetamide], the half-maximal inhibitory concentration (IC50) came to 417 nM on human orexin-1 receptor and 5 nM on human orexin-2 receptor.
Turning to `CCN(Cc1cccc(C)n1)C(=O)CN(c1cccc(N(C)C)c1)S(=O)(=O)c1ccc(C(C)(C)C)cc1` [Example 87, 2-[(4-tert-Butyl-benzenesulfonyl)-(3-dimethylamino-phenyl)-amino]-N-ethyl-N-(6-methyl-pyridin-2-ylmethyl)-acetamide], the IC50 was found to be 56 nM on human orexin-1 receptor and 8 nM at human orexin-2 receptor.
For the compound `CN(C)c1cccc(N(CC(=O)N(CCO)Cc2ccccn2)S(=O)(=O)c2ccc(C(C)(C)C)cc2)c1` [Example 111, 2-[(4-tert-Butyl-benzenesulfonyl)-(3-dimethylamino-phenyl)-amino]-N-(2-hydroxy-ethyl)-N-pyridin-2-ylmethyl-acetamide], the IC50 at human orexin-1 receptor came to 331 nM; at human orexin-2 receptor, 5 nM.
Consider `CCN(Cc1cccc(O)c1)C(=O)CN(c1ccccc1OC)S(=O)(=O)c1ccccc1C` [Example 158, N-Ethyl-N-(3-hydroxy-benzyl)-2-[(2-methoxy-phenyl)-(toluene-2-sulfonyl)-amino]-acetamide], for which the 50% inhibitory concentration (IC50) came to 840 nM at human orexin-1 receptor and 5 nM at human orexin-2 receptor.
On the same counts, the results for `CCN(Cc1cccc(C)n1)C(=O)CN(c1ccc(OC)nc1)S(=O)(=O)c1ccccc1C` [Example 160, N-Ethyl-2-[(6-methoxy-pyridin-3-yl)-(toluene-2-sulfonyl)-amino]-N-(6-methyl-pyridin-2-ylmethyl)-acetamide] are 8640 nM and 2 nM.
Turning to `CCN(Cc1ccccn1)C(=O)CN(c1ccc(OC)nc1)S(=O)(=O)c1ccccc1C` [Example 163, N-Ethyl-2-[(6-methoxy-pyridin-3-yl)-(toluene-2-sulfonyl)-amino]-N-pyridin-2-ylmethyl-acetamide], the IC50 at human orexin-1 receptor was above 10000 nM; at human orexin-2 receptor, 4 nM.
`CCN(Cc1ccccc1)C(=O)CN(c1ccccc1OC)S(=O)(=O)c1ncccc1C` [Example 185, N-Benzyl-N-ethyl-2-[(2-methoxy-phenyl)-(3-methyl-pyridine-2-sulfonyl)-amino]-acetamide]: the concentration for half-maximal inhibition (IC50) at human orexin-1 receptor turned out to be 4270 nM; at human orexin-2 receptor, 4 nM.
For the compound `CCN(Cc1ccccc1)C(=O)CN(c1ccc(OC)nc1)S(=O)(=O)c1ncccc1C` [Example 207, N-Benzyl-N-ethyl-2-[(6-methoxy-pyridin-3-yl)-(3-methyl-pyridine-2-sulfonyl)-amino]-acetamide], the half-maximal inhibitory concentration (IC50) at human orexin-1 receptor came out at 5370 nM; on human orexin-2 receptor it was 4 nM.
